Values joined by “and” are separate entries in the source; they are usually repeats but may differ in a detail not shown here. Equal values may be shown once.
Legend:
HCT116 cells [1] = assay: Flow cytometry cell cycle / sub-G1 analysis; format: cell-based, human
Experimental: After centrifugation, cells were incubated in 0.1 mol/L phosphate-citric acid buffer [0.2 mol/L NaHPO4, 0.1 mol/L citric acid (pH 7.8)] for 20 min at room temperature. Then, the cells were centrifuged and resuspended with 0.5 mL PI solution containing Triton X-100 (0.1%, v/v), RNase (100 µg/mL), and PI (80 µg/mL). DNA content was analyzed with the FACScan and CellQuest software (Becton Dickinson).

[2] = Body weight and adverse effects in xenograft study; format: in vivo, nude mice; settings: HCT116 xenograft mice, oral daily treatment
Experimental: (A) Tumors were measured regularly and growth delay was calculated for treatment groups relative to control tumors (TGD). (B) Kaplan-Meier survival analysis was based on the tumor growth endpoint. (C) Inhibition of tumor growth curves represented a mean±SEM and percentage change in mean tumor volume (percent TGI). (D) Body weights were measured daily during the first week and then 2 times per week. The body weight ratio was calculated relative to the baseline measurement.
(§1) Once a tumor was palpable with the size of approximately 55 mm^3, mice were randomized into vehicle control and treatment groups (8 mice per group). Control mice received the vehicle (0.5% carboxymethyl cellulose +0.1% Tween 80). Tumors in all 3 groups were allowed to reach an endpoint volume of 1,200 mm^3.

HCT116 cells [3] = assay: Sulforhodamine B cell growth assay; format: cell-based; settings: Homo sapiens, HCT-116, 48 h
Experimental: HCT116, MDAMB231 and NCI-ADR cells were seeded in 96-well plates in medium with 5% fetal bovine serum overnight. Cells were fixed with 10% trichloroacetic representing cell population at the time of drug treatment (T 0). […] Excess Sulforhodamine B was washed away by 1% acetic acid and dye-containing cells were lysed with 10 mmol/L Trizma base. […] By measuring time zero (T 0), control growth (C), and cell growth in the presence of the drug (Tx), the percentage growth was calculated. Percentage growth inhibition was calculated as 100-[(Tx–T 0)/(C-T 0)]×100.

HCT116 cells [4] = assay: Western blot histone H3 and α-tubulin acetylation; format: cell-based, human; settings: 24 h
Experimental: (§2) For total lysate, cells were lysed with the 120 µL ice-cold lysis buffer [10 mmol/L Tris-HCl (pH 7.4), 150 mmol/L NaCl, 1 mmol/L EGTA, 1 mmol/L phenylmethylsulfonyl fluoride, 10 µg/mL aprotinin, 10 µg/mL leupeptin, 1 mM sodium orthovandate, 1 mM NaF, and 1% Triton X-100]. Cell lysates were centrifuged at 13,000 rpm for 30 min. For Western blot analysis, the amount of protein (40 µg) was separated by electrophoresis in a 10% or 15% polyacrylamide gel and transferred to a polyvinylidene difluoride (PVDF) membrane. After 1 h incubation at room temperature in PBS/5% nonfat milk, the membrane was washed with PBS/0.1% and incubated with the indicated antibodies at 4°C overnight. After washings with PBS/0.1% Tween 20, the corresponding secondary antibodies were applied to the membranes for 1 h at room temperature. The membranes were then washed with PBS/0.1% Tween 20 and the detection of signal was done with an enhanced chemiluminescence detection kit (Amersham, Buckinghamshire, UK).

[5] = tested on: human HCT116 colorectal cancer xenograft; assay: HCT116 xenograft, tumor growth delay to 1,200 mm^3 endpoint; format: in vivo, nude mice
Experimental: The human HCT116 colorectal adenocarcinoma cells used for implantation were harvested during log phase growth and resuspended in phosphate-buffered saline at 5×10^7 cells/mL. Each mouse was injected s.c. in the right flank with 1.0×10^7 cells (0.2 mL cell suspension). Tumors were monitored twice weekly and then daily as their volumes approached 1,200 mm^3. Tumor size, in mm^3, was calculated from: where w = width and l = length in mm of the tumor. Tumor volume = (w^2×l)/2.
The logrank test was used to determine the statistical significance of the difference between the TTE values of two groups, except any NTR deaths. […] The two-tailed statistical analyses were conducted at P = 0.05. Kaplan-Meier plots show the percentage of animals remaining in the study versus time. The Kaplan-Meier plots use the same data set as the logrank test.
as §1

HCT116 xenograft tumors = assay: Western blot of HCT116 xenograft tumor tissues; format: in vivo, nude mice; settings: 200 mg/kg oral daily for 7 days
Experimental: as §2, with “For Western blot analysis, the amount of protein (40 µg) was separated by electrophoresis in a 10% or 15% polyacrylamide gel and transferred to a polyvinylidene difluoride (PVDF) membrane.” left out
as §1

GI50 (HCT116 cells [3]): 820 ± 70 nM
SMILES: O=C(CCCCCCC(=O)Nc1ccccc1)NO [SAHA, suberoylanilide hydroxamic acid, reference compound]
sub-G1 population (flow cytometry) (HCT116 cells [1]): weaker effect and delayed cytotoxicity
body weight and other adverse effects [2]: No significant body weight difference or other adverse effects
α-tubulin acetylation (western blot) (HCT116 cells [4]): exhibited more potent α-tubulin acetylation than MPT0E028
Median TTE ([5]; 200 mg/kg po qd to endpoint 1200 mm^3): 27.0 days
No. of CR (complete regression) ([5]; 200 mg/kg po qd, 8 mice per group): 0
%TGD (tumor growth delay) ([5]; 200 mg/kg po qd, [(T-C)/C]×100): 63%
T-C ([5]; 200 mg/kg po qd, median TTE treated versus control): 10.0 days and 10 days
expression of caspase 3, PARP, acetyl-histone H3 and acetyl-tubulin in xenograft tumors (HCT116 xenograft tumors): acetyl-µ-tubulin were found more profoundly
